We go through 3 compounds from US20200148682A1, “AKT ISOZYME-SPECIFIC COVALENT INHIBITORS DERIVED FROM REDOX-SIGNALING LIPIDS” (Cornell University, priority 2017, published 2020).

The subject of one experiment is MDA-MB-468 cells. As to the kind of experiment: Cell cycle analysis using flow cytometry. It counts as cell-based. The following applies: for effect on cell cycle: 72 hours. On the procedure: MDA-MB-468 cells in a 6-well plate at 10% confluence were treated with HNE alkyne or the indicated drug at PI60 or PI80 concentration for 72 hours at 37° C. Negative control contained the equivalent volume of DMSO. Cells were grown and analyzed in separate batches of 1-2 replicates per condition that were run 2-3 times each. Each time the data points were normalized to the control set for each batch. At the indicated time post compound treatment, the culture medium was aspirated and the adherent cells were detached from the plate using trypsin, quenched with complete media, centrifuged (700 g), washed once with PBS, centrifuged (700 g), resuspended in PBS, then fixed with 70% ethanol for 24 hours. The cell suspensions were spun down at 1,000 g and washed with 500 μl of PBS twice. Each cell pellet was treated with 500 μL staining solution containing 50 μl of Ribonuclease A (≥70 Kunitz units/mg proteins, R6513, Sigma-Aldrich) and 50 μl of a propidium iodide (1 mg/ml, Sigma-Aldrich) solution in PBS with 1% BSA. The resulting solution was incubated with agitation at room temperature for 30 min in the dark.
The stained cells were assayed on a BD LSR II flow cytometer. FlowJo® was used to deconvolute the signals. Cells were grouped first by forward and side scatter (area), then that group was regrouped using forward (width) versus forward (area) scatter to give single cells. Cells were than analyzed using cellular DNA content to quantitate the percentage of cells in the respective phases (G1, S, G2/M and sub-G0) of the cell cycle.
In general terms: Flow cytometry measures light scatter and fluorescence of single cells or particles in a stream.

The next experiment addresses T1, recombinant Akt3 (Homo sapiens, UniProt Q9Y243).
T1 construct: purchased Active Motif 31147
As to the kind of experiment: NADH-coupled Akt activity assay (progress curve analysis). It counts as biochemical. The source says:
FIGS. 20A-20H show the kinetic analysis of Akt3 covalent inhibition by MK-HNE, MK-FNE, and MK-dHNE. FIG. 20A is a schematic representation of the NADH-coupled kinetic assay to monitor the progress of Akt-catalyzed phosphorylation of the known peptide substrate, Crosstide (Akt substrate, cat. No. sc-471145, Santa Cruz). […] The solid curves are the best nonlinear fits of the data using EQN. 1. FIG. 20D is a graph showing a replot of kobs for the progress curve as a function of MK-HNE concentration. FIG. 20F is a graph showing a replot of kobs for the progress curve as a function of MK-dHNE concentration. The hyperbolic curve is the best nonlinear fit to EQN. 2. FIG. 20H is a graph showing kobs for the progress curve as a function of MK-FNE concentration fit to a cooperative binding equation using EQN 3. Inhibition of recombinant Akt3 ([…]) by MK-HNE, MK-dHNE, and MK-FNE was assayed by progress curve analysis: inhibitor was added to enzyme in assay buffer containing 100 nM Akt3 kinase, 100 μM Crosstide (Akt substrate, cat. No. sc-471145, Santa Cruz), 500 μM ATP, 4 mM TCEP, 5 mM phosphoenolpyruvate, pyruvate kinase (24-40 units/mL), lactate dehydrogenase (36-56 units/mL), 500 μM NADH and various concentrations of the inhibitor. All curves were background rate subtracted. Product formation was measured continuously for 6 min. Over this time, Akt3 activity was constant in the absence of the inhibitors.
To a 96-well plate with varying amounts of indicated inhibitors was added the kinetic assay mixture containing, in final concentrations, 50 mM HEPES, 100 mM NaCl, 10 mM MgCl2, 5 mM phosphoenolpyruvate, 500 μM NADH, 100 μM crosstide (the Akt substrate, cat. No. sc-471145, Santa Cruz), pyruvate kinase (24-40 units/mL), lactate dehydrogenase (36-56 units/mL), 4 mM TCEP, 500 μM ATP. […] The progress of phosphorylation was monitored by reading absorbance at 340 nm over the course of study. […]
To gain a more quantitative understanding of the covalent inhibitors, inhibition of Akt3 by MK-HNE in vitro was investigated. […] Loss of NADH was measured by decrease in A340 as a function of time. […]

T1 sequence (Q9Y243 whole entry): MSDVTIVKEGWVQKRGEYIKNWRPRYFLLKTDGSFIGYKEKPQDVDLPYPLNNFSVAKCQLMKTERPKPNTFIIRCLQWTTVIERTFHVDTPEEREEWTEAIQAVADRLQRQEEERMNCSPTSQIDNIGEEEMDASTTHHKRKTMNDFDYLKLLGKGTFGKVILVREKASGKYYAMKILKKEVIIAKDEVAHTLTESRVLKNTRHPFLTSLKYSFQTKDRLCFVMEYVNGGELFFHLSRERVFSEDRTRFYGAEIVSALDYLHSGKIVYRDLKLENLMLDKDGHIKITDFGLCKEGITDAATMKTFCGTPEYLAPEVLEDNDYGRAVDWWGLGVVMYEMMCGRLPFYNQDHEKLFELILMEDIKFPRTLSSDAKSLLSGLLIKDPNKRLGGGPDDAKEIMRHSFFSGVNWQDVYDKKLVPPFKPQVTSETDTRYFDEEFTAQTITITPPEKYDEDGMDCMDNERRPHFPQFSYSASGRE

On to `NC1(c2ccc(-c3nc4ccn5c(=O)[nH]nc5c4cc3-c3ccccc3)cc2)CCC1` [MK-2206], for which, in the experiment on MDA-MB-468 cells (drug at PI60, 72 hours), the “G1/G0 (percentage of cells in phase)” value was found to be 41.8, the “G2/M (percentage of cells in phase)” value was determined as 31.3, the “S (percentage of cells in phase)” value is given as 25.4 and the “subG0 (percentage of cells in phase)” value is 0.3. In addition, in the experiment on MDA-MB-468 cells (drug at PI80, 72 hours), the “G1/G0 (percentage of cells in phase)” value came out at 50.2, the “G2/M (percentage of cells in phase)” value is given as 29.0, the “S (percentage of cells in phase)” value stood at 19.6 and the “subG0 (percentage of cells in phase)” value was determined as 0.3.
As a reminder, the kinact/KI is the second-order rate constant of inactivation. Regarding `C#CCCCC(F)/C=C/C(=O)NC1(c2ccc(-c3nc4ccn5c(=O)[nH]nc5c4cc3-c3ccccc3)cc2)CCC1.Cl` (centres unmarked) [MK-FNE, (E)-8-(4-(1-(4-Fluoronon-2-en-8-ynamido)cyclobutyl)phenyl)-3-oxo-9-phenyl-2,3-dihydro-[1,2,4]triazolo[3,4-f][1,6]naphthyridin-7-ium Chloride], on recombinant Akt3 (cooperative binding fit of kobs vs concentration), the “n (Hill coefficient)” value is listed as 3.2. For the same compound, the kinact/KI at recombinant Akt3 (recombinant Akt3, as stated in text) was around 10000 M⁻¹ s⁻¹. For the same compound, the “effect on cell cycle” value with MDA-MB-468 cells is listed as “G1 arrest”. Also, in the experiment with MDA-MB-468 cells (drug at PI60, 72 hours), the “G1/G0 (percentage of cells in phase)” value amounted to 47.0, the “G2/M (percentage of cells in phase)” value turned out to be 33.3, the “S (percentage of cells in phase)” value was 18.6 and the “subG0 (percentage of cells in phase)” value amounted to 0.5. Also, in the experiment with MDA-MB-468 cells (drug at PI80, 72 hours), the “G1/G0 (percentage of cells in phase)” value is listed as 58.9, the “G2/M (percentage of cells in phase)” value amounted to 27.0, the “S (percentage of cells in phase)” value is recorded as 11.9 and the “subG0 (percentage of cells in phase)” value amounted to 0.8.
For `C#CCCCC(O)/C=C/C(=O)NC1(c2ccc(-c3nc4ccn5c(=O)[nH]nc5c4cc3-c3ccccc3)cc2)CCC1.Cl` (centres unmarked) [MK-HNE, (E)-8-(4-(1-(4-Hydroxynon-2-en-8-ynamido)cyclobutyl)phenyl)-3-oxo-9-phenyl-2,3-dihydro-[1,2,4]triazolo[3,4-f][1,6]naphthyridin-7-ium Chloride], the “inhibition profile of Akt3” value on recombinant Akt3 (progress curves) was “time-dependent inhibitor”. Also, the “effect on cell cycle” value in the experiment with MDA-MB-468 cells was “G1 arrest”. Moreover, in the experiment on MDA-MB-468 cells (drug at PI60, 72 hours), the “G1/G0 (percentage of cells in phase)” value stood at 41.7, the “G2/M (percentage of cells in phase)” value turned out to be 30.3, the “S (percentage of cells in phase)” value stood at 25.9 and the “subG0 (percentage of cells in phase)” value is recorded as 0.4. In the experiment with MDA-MB-468 cells (drug at PI80, 72 hours), the “G1/G0 (percentage of cells in phase)” value worked out at 49, the “G2/M (percentage of cells in phase)” value amounted to 25.5, the “S (percentage of cells in phase)” value stood at 16.6 and the “subG0 (percentage of cells in phase)” value turned out to be 5.5.
